Laboratory results published in paper PMC6487875 (Biochemistry, 2018).

Assays:
[1] = target: T1, GOT1 (glutamate oxaloacetate transaminase 1, aspartate aminotransferase 1) (Homo sapiens, UniProt P17174); assay: GLOX/HRP-coupled GOT1 enzyme assay; type: biochemical
[2] = target: T1, GOT1 (glutamate oxaloacetate transaminase 1, aspartate aminotransferase 1); assay: GLOX/HRP-coupled enzyme kinetics; type: biochemical
[3] = target: T1, GOT1 (glutamate oxaloacetate transaminase 1, aspartate aminotransferase 1); assay: X-ray crystal structure, […] Å; type: binding

T1 sequence (P17174 2-413): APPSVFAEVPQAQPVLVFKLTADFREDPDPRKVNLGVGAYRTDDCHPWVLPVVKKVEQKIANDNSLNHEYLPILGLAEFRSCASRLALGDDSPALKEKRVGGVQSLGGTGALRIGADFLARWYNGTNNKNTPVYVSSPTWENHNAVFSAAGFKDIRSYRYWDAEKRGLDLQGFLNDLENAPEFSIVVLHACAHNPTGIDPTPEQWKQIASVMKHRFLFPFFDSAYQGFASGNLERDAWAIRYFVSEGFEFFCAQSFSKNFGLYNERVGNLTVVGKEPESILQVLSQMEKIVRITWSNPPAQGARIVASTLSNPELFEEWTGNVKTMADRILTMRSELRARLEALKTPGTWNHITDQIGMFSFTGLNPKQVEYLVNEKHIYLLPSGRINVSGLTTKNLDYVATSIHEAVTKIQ

Question: How did the IC50 [1] turn out when O=C(Nc1ccccc1)N1CCN(c2cccc3[nH]ccc23)CC1 [iGOT1-01] was run?
Answer: 11.3 µM

Question: With O=C(O)CCC(=O)C(=O)O [α-ketoglutarate] as the compound, how does the Km [2] read?
Answer: ~ 0.5 mM

Question: Which “X-ray crystal structure, 2.10 Å” value [3] does the source give for Cc1ncc(COP(=O)(O)O)c(C=O)c1O [PLP] here?
Answer: The WT-GOT1 structure is a homodimer, each of which contains PLP.
